Values belong to the compound of their own block, whether it stands above or below them.
Biological target: T1, Nav1.7 (or SCN9A) channel; HEK cells stably transfected with hSCN9A (Homo sapiens, UniProt Q15858)
T1 construct: expressed in transfected cells
Assay: Nav1.7 block, PatchXpress 7000 automated whole-cell voltage clamp, estimated IC50 (EIC50)
Assay type: cell-based
Settings: estimated IC50, PatchXpress platform

[1] = hSCN9A HEK cells, Examples 815-1040
[2] = hSCN9A HEK cells, Examples 283-814
[3] = hSCN9A HEK cells held at V1/2 of inactivation

T1 sequence (Q15858 whole entry): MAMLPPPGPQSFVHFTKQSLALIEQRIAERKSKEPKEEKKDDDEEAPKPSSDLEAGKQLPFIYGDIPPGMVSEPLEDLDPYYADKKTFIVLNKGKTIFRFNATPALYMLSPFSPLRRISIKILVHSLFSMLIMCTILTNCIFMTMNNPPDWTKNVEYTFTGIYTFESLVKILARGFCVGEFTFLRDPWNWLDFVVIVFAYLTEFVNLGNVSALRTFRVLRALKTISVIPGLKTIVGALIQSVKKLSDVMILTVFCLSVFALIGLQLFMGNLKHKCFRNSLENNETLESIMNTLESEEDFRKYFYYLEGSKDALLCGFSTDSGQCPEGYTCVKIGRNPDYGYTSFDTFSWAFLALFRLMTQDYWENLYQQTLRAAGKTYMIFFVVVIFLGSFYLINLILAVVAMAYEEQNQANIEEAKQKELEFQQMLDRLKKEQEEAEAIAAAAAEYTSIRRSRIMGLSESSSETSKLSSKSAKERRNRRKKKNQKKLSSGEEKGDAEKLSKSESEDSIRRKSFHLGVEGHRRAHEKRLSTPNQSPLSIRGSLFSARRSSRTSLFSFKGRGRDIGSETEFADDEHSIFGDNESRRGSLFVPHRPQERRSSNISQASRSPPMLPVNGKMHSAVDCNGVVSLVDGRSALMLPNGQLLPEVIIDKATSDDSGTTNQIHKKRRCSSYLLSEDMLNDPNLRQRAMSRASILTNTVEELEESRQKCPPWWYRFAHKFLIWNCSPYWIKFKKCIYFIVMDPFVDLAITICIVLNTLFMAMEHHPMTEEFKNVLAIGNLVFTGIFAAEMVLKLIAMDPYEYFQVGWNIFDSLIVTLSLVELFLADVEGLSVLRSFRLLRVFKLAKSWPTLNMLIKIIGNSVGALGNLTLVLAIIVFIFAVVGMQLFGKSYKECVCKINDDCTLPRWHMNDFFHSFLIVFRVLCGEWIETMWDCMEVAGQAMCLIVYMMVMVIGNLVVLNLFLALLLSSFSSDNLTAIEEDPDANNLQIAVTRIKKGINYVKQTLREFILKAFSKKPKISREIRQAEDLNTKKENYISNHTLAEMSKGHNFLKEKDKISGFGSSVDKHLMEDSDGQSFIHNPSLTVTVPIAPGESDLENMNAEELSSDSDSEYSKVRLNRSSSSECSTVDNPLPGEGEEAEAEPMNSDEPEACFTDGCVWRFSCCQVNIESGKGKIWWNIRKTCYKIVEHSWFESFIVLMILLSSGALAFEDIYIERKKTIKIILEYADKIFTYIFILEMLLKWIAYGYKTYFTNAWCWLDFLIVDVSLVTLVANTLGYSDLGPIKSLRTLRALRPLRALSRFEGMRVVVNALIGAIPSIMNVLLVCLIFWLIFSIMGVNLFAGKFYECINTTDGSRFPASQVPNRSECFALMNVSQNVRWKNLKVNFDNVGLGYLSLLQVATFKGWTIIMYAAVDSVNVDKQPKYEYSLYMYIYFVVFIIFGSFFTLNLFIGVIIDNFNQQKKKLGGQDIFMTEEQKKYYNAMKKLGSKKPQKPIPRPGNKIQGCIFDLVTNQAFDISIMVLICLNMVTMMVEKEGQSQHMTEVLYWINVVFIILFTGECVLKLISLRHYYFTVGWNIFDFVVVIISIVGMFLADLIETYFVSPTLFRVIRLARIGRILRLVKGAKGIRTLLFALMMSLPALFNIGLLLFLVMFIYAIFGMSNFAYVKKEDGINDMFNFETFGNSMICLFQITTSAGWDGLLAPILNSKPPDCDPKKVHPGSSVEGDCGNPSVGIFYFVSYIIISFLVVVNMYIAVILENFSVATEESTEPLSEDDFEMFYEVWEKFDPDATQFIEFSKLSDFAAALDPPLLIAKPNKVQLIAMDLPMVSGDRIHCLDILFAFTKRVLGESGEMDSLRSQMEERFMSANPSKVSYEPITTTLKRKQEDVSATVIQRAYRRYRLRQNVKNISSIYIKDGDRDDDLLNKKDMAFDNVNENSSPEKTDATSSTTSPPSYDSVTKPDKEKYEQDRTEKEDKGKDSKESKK

Compound: CC(C)c1ccc(Oc2ccc(S(=O)(=O)Nc3nccs3)cc2C#N)c(-c2ccnn2C)c1 [Example 351, 3-cyano-4-[4-isopropyl-2-(1-methyl-1H-pyrazol-5-yl)phenoxy]-N-1,3-thiazol-2-ylbenzenesulfonamide]
- IC50 [2]: 18 nM

Compound: N#Cc1cc(S(=O)(=O)Nc2ncns2)ccc1Oc1cc(Cc2ccc(Cl)cc2)nn1CC(N)=O [Example 93, 2-[3-(4-chlorobenzyl)-5-{2-cyano-4-[(1,2,4-thiadiazol-5-ylamino)sulfonyl]phenoxy}-1H-pyrazol-1-yl]acetamide]
- IC50 [3]: 1570 nM

Compound: Cn1cc(-c2ccc(Cl)cc2)c(Oc2ccc(S(=O)(=O)Nc3ncc(Cl)s3)cc2C#N)n1 [Example 137, 4-{[4-(4-chlorophenyl)-1-methyl-1H-pyrazol-3-yl]oxy}-N-(5-chloro-1,3-thiazol-2-yl)-3-cyanobenzenesulfonamide]
- IC50 [3]: 2590 nM

Compound: N#Cc1cc(S(=O)(=O)Nc2nccs2)ccc1Oc1cc(-c2ccccc2F)nn1CC(F)(F)F [Example 188, 3-cyano-4-[5-(2-fluoro-phenyl)-2-(2,2,2-trifluoro-ethyl)-2H-pyrazol-3-yloxy]-N-thiazol-2-yl-benzenesulfonamide]
- IC50 [3]: 9420 nM

Compound: O=S(=O)(Nc1ncns1)c1cc(Cl)c(Oc2ccccc2-c2ccccc2)cc1F [Example 270, 4-(biphenyl-2-yloxy)-5-chloro-2-fluoro-N-1,2,4-thiadiazol-5-ylbenzenesulfonamide]
- IC50 [3]: 30 nM

Compound: Cc1nn(Cc2ccccc2)cc1-c1ccccc1Oc1ccc(S(=O)(=O)Nc2ncns2)cc1F [Example 252, 4-(2-(1-benzyl-3-methyl-1H-pyrazol-4-yl)phenoxy)-3-fluoro-N-(1,2,4-thiadiazol-5-yl)benzenesulfonamide]
- IC50 [3]: 24500 nM

Compound: N#Cc1cc(S(=O)(=O)Nc2ncns2)cc(F)c1Oc1ccc(F)cc1-c1ccn[nH]1 [Example 459, 3-cyano-5-fluoro-4-[4-fluoro-2-(1H-pyrazol-5-yl)phenoxy]-N-1,2,4-thiadiazol-5-ylbenzenesulfonamide]
- IC50 [2]: 840 nM

Compound: N#Cc1cc(S(=O)(=O)Nc2nccs2)ccc1Oc1ccccc1-c1ccccc1 [Example 165, 4-(biphenyl-2-yloxy)-3-cyano-N-(thiazol-2-yl)benzenesulfonamide]
- IC50 [3]: 50 nM

Compound: Cn1nc(C(F)(F)F)cc1-c1cc(Cl)ccc1Oc1ccc(S(=O)(=O)Nc2cscn2)cc1C#N [Example 395, 4-{4-chloro-2-[1-methyl-3-(trifluoromethyl)-1H-pyrazol-5-yl]phenoxy}-3-cyano-N-1,3-thiazol-4-ylbenzenesulfonamide]
- IC50 [2]: 1800 nM

Compound: Cc1nsc(NS(=O)(=O)c2cc(Cl)c(Oc3ccc(Cl)cc3-c3ccnn3C)cc2F)n1 [Example 294, 5-chloro-4-[4-chloro-2-(1-methyl-1H-pyrazol-5-yl)phenoxy]-2-fluoro-N-(3-methyl-1,2,4-thiadiazol-5-yl)benzenesulfonamide]
- IC50 [2]: 34 nM

Compound: Cn1nccc1-c1cc(F)ccc1Oc1cc(F)c(S(=O)(=O)Nc2nncs2)cc1Cl [Example 298, 5-chloro-2-fluoro-4-[4-fluoro-2-(1-methyl-1H-pyrazol-5-yl)phenoxy]-N-1,3,4-thiadiazol-2-ylbenzenesulfonamide]
- IC50 [2]: 140 nM

Compound: CC(C)(C)n1nccc1-c1c(F)cccc1Oc1ccc(S(=O)(=O)Nc2ncns2)cc1C#N [Example 83, 4-[2-(1-tert-butyl-1H-pyrazol-5-yl)-3-fluorophenoxy]-3-cyano-N-1,2,4-thiadiazol-5-ylbenzenesulfonamide]
- IC50 [3]: 2450 nM

Compound: Cn1nccc1-c1ccc(Oc2ccc(S(=O)(=O)Nc3nccs3)cc2C#N)cc1 [Example 436, 3-cyano-4-[4-(1-methyl-1H-pyrazol-5-yl)phenoxy]-N-1,3-thiazol-2-ylbenzenesulfonamide]
- IC50 [2]: 1300 nM

Compound: CC(C)Oc1ccc(-c2ccccc2Oc2ccc(S(=O)(=O)Nc3ncns3)cc2C#N)cc1 [Example 54, 3-cyano-4-[(4′-isopropoxybiphenyl-2-yl)oxy]-N-1,2,4-thiadiazol-5-ylbenzenesulfonamide]
- IC50 [3]: 260 nM

Compound: Cc1cc(S(=O)(=O)Nc2ncns2)ccc1Oc1ccn(Cc2ccc(Cl)cc2)n1 [Example 257, 4-{[1-(4-chlorobenzyl)-1H-pyrazol-3-yl]oxy}-3-methyl-N-1,2,4-thiadiazol-5-ylbenzenesulfonamide]
- IC50 [3]: 2200 nM

Compound: Cn1cc(-c2cc(Cl)ccc2Oc2ccc(S(=O)(=O)Nc3cscn3)cc2C#N)cn1 [Example 414, 4-[4-chloro-2-(1-methyl-1H-pyrazol-4-yl)phenoxy]-3-cyano-N-1,3-thiazol-4-ylbenzenesulfonamide]
- IC50 [2]: 1000 nM

Results, then the compound that gave them:

- IC50 [1]: 6.4 nM
Compound: N#Cc1cc(S(=O)(=O)Nc2ncns2)ccc1Oc1ccc(Cl)cc1-c1cccc(C(=O)N2CCC2)c1 [Example 854, 4-{[3′-(azetidin-1-ylcarbonyl)-5-chlorobiphenyl-2-yl]oxy}-3-cyano-N-1,2,4-thiadiazol-5-ylbenzenesulfonamide]

- IC50 [2]: 34 nM
Compound: N#Cc1cc(S(=O)(=O)Nc2ncns2)ccc1Oc1cc(F)c(Cl)cc1-c1ccn[nH]1 [Example 763, 4-[4-chloro-5-fluoro-2-(1H-pyrazol-5-yl)phenoxy]-3-cyano-N-1,2,4-thiadiazol-5-ylbenzenesulfonamide]

- IC50 [2]: 27 nM
Compound: O=S(=O)(Nc1ncns1)c1cc(F)c(Oc2ccc(C(F)(F)F)cc2C2CCOCC2)cc1F [Example 633, 2,5-difluoro-4-[2-(tetrahydro-2H-pyran-4-yl)-4-(trifluoromethyl)phenoxy]-N-1,2,4-thiadiazol-5-ylbenzenesulfonamide]

- IC50 [1]: >10000 nM
Compound: Cn1nccc1-c1cc(Cl)ccc1Oc1ccc(S(=O)(=O)Nc2cc[nH]n2)cc1C#N [Example 922, 4-[4-chloro-2-(1-methyl-1H-pyrazol-5-yl)phenoxy]-3-cyano-N-1H-pyrazol-3-ylbenzenesulfonamide]

- IC50 [1]: 3900 nM
Compound: O=S(=O)(Nc1nncs1)c1cc(F)c(Oc2ccc(Cl)cc2-c2cc(N3CCOCC3)ncn2)cc1F [Example 873, 4-[4-chloro-2-(6-morpholin-4-ylpyrimidin-4-yl)phenoxy]-2,5-difluoro-N-1,3,4-thiadiazol-2-ylbenzenesulfonamide]

- IC50 [1]: 27 nM
Compound: N#Cc1cc(S(=O)(=O)Nc2ncns2)ccc1Oc1ccc(Cl)cc1-c1cnco1 [Example 967, 4-[4-chloro-2-(1,3-oxazol-5-yl)phenoxy]-3-cyano-N-1,2,4-thiadiazol-5-ylbenzenesulfonamide]

- IC50 [2]: 500 nM
Compound: N#Cc1cc(S(=O)(=O)Nc2ncc(F)s2)ccc1Oc1ccc(Cl)c(Cn2cccn2)c1 [Example 534, 4-[4-chloro-3-(1H-pyrazol-1-ylmethyl)phenoxy]-3-cyano-N-(5-fluoro-1,3-thiazol-2-yl)benzenesulfonamide]

- IC50 [2]: 31000 nM
Compound: Cn1nccc1-c1cc(Cl)ccc1Oc1ccc(S(=O)(=O)Nc2ccc(C(F)(F)F)cn2)cc1C#N [Example 772, 4-[4-chloro-2-(1-methyl-1H-pyrazol-5-yl)phenoxy]-3-cyano-N-[5-(trifluoromethyl)pyridin-2-yl]benzenesulfonamide]

- IC50 [2]: 49 nM
Compound: O=S(=O)(Nc1cscn1)c1cc(Cl)c(Oc2ccc(Cl)cc2C2CCNCC2)cc1F [Example 655, 5-chloro-4-(4-chloro-2-piperidin-4-ylphenoxy)-2-fluoro-N-1,3-thiazol-4-ylbenzenesulfonamide]

- IC50 [1]: >10000 nM
Compound: Cc1cnc(NS(=O)(=O)c2ccc(Oc3ccc(Cl)cc3-c3ccnn3C)c(C#N)c2)cn1 [Example 892, 4-[4-chloro-2-(1-methyl-1H-pyrazol-5-yl)phenoxy]-3-cyano-N-(5-methylpyrazin-2-yl)benzenesulfonamide]

- IC50 [2]: 7 nM
Compound: O=S(=O)(Nc1cscn1)c1cc(Cl)c(Oc2ccc(F)cc2-c2ccnn2C2CNC2)cc1F [Example 808, 4-[2-(1-Azetidin-3-yl-1H-pyrazol-5-yl)-4-fluorophenoxy]-5-chloro-2-fluoro-N-1,3-thiazol-4-ylbenzenesulfonamide]

- IC50 [2]: 7.5 nM
Compound: O=S(=O)(Nc1ncns1)c1ccc(Oc2ccc(Cl)cc2-c2ccn[nH]2)c(Cl)c1 [Example 475, 3-chloro-4-[4-chloro-2-(1H-pyrazol-5-yl)phenoxy]-N-1,2,4-thiadiazol-5-ylbenzenesulfonamide]

- IC50 [2]: >30000 nM
Compound: N#Cc1cc(S(=O)(=O)Nc2ccc(F)cn2)ccc1Oc1ccc(CN2CCC2)c(F)c1 [Example 566, 4-[4-(azetidin-1-ylmethyl)-3-fluorophenoxy]-3-cyano-N-(5-fluoropyridin-2-yl)benzenesulfonamide]

- IC50 [1]: 950 nM
Compound: CC(=O)N1CC(n2nccc2-c2cc(F)ccc2Oc2cc(F)c(S(=O)(=O)Nc3cscn3)cc2Cl)C1 [Example 989, 4-{2-[1-(1-acetylazetidin-3-yl)-1H-pyrazol-5-yl]-4-fluorophenoxy}-5-chloro-2-fluoro-N-1,3-thiazol-4-ylbenzenesulfonamide]

- IC50 [1]: 4.4 nM
Compound: O=C(c1cccc(-c2cc(Cl)ccc2Oc2cc(F)c(S(=O)(=O)Nc3ncns3)cc2Cl)n1)N1CCC1 [Example 859, 4-{2-[6-(azetidin-1-ylcarbonyl)pyridin-2-yl]-4-chlorophenoxy}-5-chloro-2-fluoro-N-1,2,4-thiadiazol-5-ylbenzenesulfonamide]

- IC50 [1]: 3.2 nM
Compound: N#Cc1ccc(Oc2cc(F)c(S(=O)(=O)Nc3ncns3)cc2Cl)c(-c2cn[nH]c2)c1 [Example 850, 5-chloro-4-[4-cyano-2-(1H-pyrazol-4-yl)phenoxy]-2-fluoro-N-1,2,4-thiadiazol-5-ylbenzenesulfonamide]

- IC50 [2]: 83 nM
Compound: Cn1nccc1-c1cc(F)ccc1Oc1cc(F)c(S(=O)(=O)Nc2cscn2)cc1Cl [Example 657, 5-chloro-2-fluoro-4-[4-fluoro-2-(1-methyl-1H-pyrazol-5-yl)phenoxy]-N-1,3-thiazol-4-ylbenzenesulfonamide]

- IC50 [2]: 1000 nM
Compound: Cn1nccc1-c1cc(Br)ccc1Oc1ccc(S(=O)(=O)Nc2ncns2)cc1C(N)=O [Example 735, 2-[4-bromo-2-(1-methyl-1H-pyrazol-5-yl)phenoxy]-5-[(1,2,4-thiadiazol-5-ylamino)sulfonyl]benzamide]

- IC50 [1]: 12 nM
Compound: Cc1nsc(NS(=O)(=O)c2cc(Cl)c(Oc3ccc(Cl)cc3-c3c[nH]nc3N)cc2F)n1 [Example 872, 4-[2-(3-amino-1H-pyrazol-4-yl)-4-chlorophenoxy]-5-chloro-2-fluoro-N-(3-methyl-1,2,4-thiadiazol-5-yl)benzenesulfonamide]

Reference: patent US8541588B2, “Sulfonamide derivatives” (Pfizer Limited, priority 2009, dated 2013)
